Results as given in patent US5863716A, “Treatment of plasmodium” (The Leland Stanford Junior University Board of Trustees, priority 1997, dated 1999).
Read-outs that look alike come from different tables or passages of the source.

Legend:
Type in all cases: cell-based, Plasmodium falciparum
[1] = test system: P. falciparum strain FCB; experiment: Inhibition of intraerythrocytic growth in culture, Giemsa staining after 24 h; conditions: for inhibition at 5 µM: Plasmodium falciparum, read-out: [%] inhibition of growth
Excerpt: (§1) P. falciparum strain FCB was used for all experiments and cultured in vitro in according to a modification of the method of Trager and Jensen left off. Trager, W. and Jensen, J. B. (1976) Human malaria in continuous culture., Science (Wash. D.C.) 193: 673-675 Haldar, K., Ferguson, M. A. J. and Cross, G. A. M. (1985) Acylation of a Plasmodium falciparum merozoite surface antigen via sn-1, 2-diacyl glycerol. J. Biol. Chem. 260; 4969-4974. The culture medium contained RPMI 1640 supplemented with 25 Mm hepes, Ph 7.4/11 […] glucose/92 μM hypoxanthine/0.18% sodium bicarbonate/25 μM gentamicin and 10% AB^+ human sera. The parasites were grown in A^+ erythrocytes at 2.5-5% hematocrit. Parasite cultures were synchronized by separation of the early and late stages on a Percoll gradient. The subsequent reincubation of these stages in culture were used to obtain cells 12-24 h in the life cycle. Inhibition of sphingomyelin biosynthetic activity using 5 μM of the various compounds was carried out as described in Example 1. 5 μM of the various compounds were added to 0-12 h rings in the culture medium and cells were examined by Giemsa staining after 24 h.

[2] = test system: sphingomyelin synthase; experiment: Inhibition of plasmodial sphingomyelin biosynthesis in intact infected erythrocytes (C6-NBD-ceramide to C6-NBD-sphingomyelin, TLC); conditions: for [%] inhibition of sphingomyelin biosynthetic activity: 5 μM of compound; for effect on enzyme (sphingomyelin synthase) activity: 5 μM, see Example 3
Procedure: 1×10^8 infected cells 24 h after invasion were washed serum-free in RPMI 1640 and preincubated for thirty min at 37° C. in 1 ml of RPMI 1640 containing 0-5 μM or 0-500 μM of PPMP. (C6-NBD-ceramide (N-[7-(4-nitrobenzo-2-oxa-1,3-diazide)]-6-aminocaproyl-D-erythro-sphingosine) was added to each sample at a final concentration of 5 μM, the samples further incubated for 30 min at 37° C. and cellular lipids extracted. C6-NBD-sphingomyelin was resolved by TLC and quantitated by fluorescence spectrophotometry as described previously. Bligh, E. G. and Dyer, W. Y. (1959) A rapid method for total lipid extraction and purification., Can. J. Biochem. Physiol. 37: 911-917. Haldar, K., Uyetake, L., Ahori, N., Elmendorf, H. G. and Lu, W-1. (1991) The accumulation and metabolism of a fluorescent ceramide derivative in Plasmodium falciparum--infected erythrocytes., Mo. Biochem. Parasitol. 49: 143-156. Elmendorf, H. G. and Haldar, K. (1994) Plasmodium falciparum exports the Golgi marker sphingomyelin synthase into a tubovesicular network in the cytoplasm of mature erythrocytes., J. Cell Biol. 124: 449-462. Each value obtained represented the mean of triplicate determinations from five experiments. The arrow bars indicate the standard deviations. The results are depicted in FIG. 1.
as §1

[3] = test system: P. falciparum schizonts and merozoites; experiment: Schizont maturation and merozoite invasion in the presence of drug; conditions: 5 μM
Procedure: Schizont-stage parasites isolated over Percoll were allowed to invade in the presence of RPMI 1640 containing 10% human serum or in the presence of RPMI 1640 containing 10% human serum and 5 μM PPMP. 1×10^8 infected erythrocytes of the appropriate stage were incubated in 1 ml of RPMI 1640 supplemented with 2mg/ml defatted BSA and 20 μM C5 -DMB-ceramide. Cells were washed and fixed as described in Example 5. Sequential micrographs were taken on a custom made laser confocal microscope at 400 nm intervals along the Z axis. Raw data were processed as described previously.
Furthermore, the released daughter merozoites enter red cells to form new rings in the continued presence of the drug. This supports the conclusion that the parasite sphingomyelin synthase is essential only to ring and trophozoite-infected red cells in the first 30 to 36 h of intraerythrocytic development.
To determine whether the parasite specific sphingomyelin synthase activity is required for the development of the TVM, ring-infected erythrocytes inhibited in the enzyme from the onset of intra- erythrocytic development were employed. […] Optical sections obtained by staining with C5 DMB-ceramide were observed. A tubular structure was seen extending from the body of the parasite apparently connected to a larger vesicle in the red cell. In rings formed in the presence of PPMP, the intraerythrocytic structures are seen as discrete domains, separated from each other in all three sections. […] Thus, specific inhibition of the parasite's sphingomyelin biosynthetic activity appears to alter the interconnected "tubovesicular morphology" of the TVM into isolated intraerythrocytic compartments or "vesicles" in ring stage parasites.

[4] = test system: P. falciparum; experiment: Intraerythrocytic development in long term synchronized culture, parasitemia over consecutive cycles; conditions: Plasmodium falciparum; over three cycles of growth; read-out: lowest effective, killing concentration
Procedure: Synchronized cultures 12 h after invasion were subjected to different concentrations of PPMP. Parasitemias of drug-treated cultures were determined at various time points during two intraerythrocytic cycles and compared to cells grown in the absence of drug.
The effect of the single lipid analogs to inhibit parasite development in long term culture in consecutive cycles of the parasite growth were investigated. The studies were initiated with synchronized, young rings (0-12h) at 10% parasitemia. In order to ensure healthy growth of the malaria parasite in vitro, the parasitemias of the cultures are not allowed to exceed 10%. Yet under normal conditions a 3-6 fold increase in parasitemias is detected with each round of invasion: thus for each new cycle, the cultures were diluted 4-fold into fresh erythrocytes in the absence or presence of the drug. […] The lowest effective, killing concentration of PDMP over three cycles of growth is 1.0 μM.

[5] = 5 μM added to 0-12 h rings, Giemsa staining after 24 h

SMILES	[%] inhibition of sphingomyelin biosynthetic activity [2]	inhibition at 5 µM [1, 5]	also measured
CCCCCCCCCCCCC/C=C/[C@@H](O)[C@@H](N)CO [sphingosine]	0%	–	inhibition at 5 µM [1]: 0%; effect on enzyme (sphingomyelin synthase) activity [2]: no effect
CCCCCCCCCCCCCCC[C@H](O)[C@@H](N)CO (racemic) [dl-dihydrosphingosine]	4%	–	[%] inhibition of growth [1, 5]: 8%; effect on enzyme (sphingomyelin synthase) activity [2]: no effect
CCN(CC)CCO[C@H]1CC[C@@]2(C)C(=CC[C@@H]3[C@@H]2CC[C@]2(C)C(=O)CC[C@@H]32)C1 [U 18666 A]	0%	1%	–
CCCCCCCCCCCCCCCCCCN [stearylamine]	–	0%	–
CCCCCCCCCC(=O)N[C@H](CN1CCOCC1)[C@H](O)c1ccccc1 (relative stereo) [dl-threo-PDMP, dl-threo-1-phenyl-2-decanoylamino-3-morpholino-1-propanol]	–	100%	fate of schizonts greater than 40 h in the cycle [3]: mature and rupture; minimal effective concentration [4]: 1 µM
CN(C)CCCN1c2ccccc2CCc2ccccc21 [imipramine]	0%	–	inhibition at 5 µM [1]: 7%
CCCCCCCCCC(=O)N[C@@H](CN1CCOCC1)[C@H](O)c1ccccc1 (relative stereo) [dl-erythro-PDMP]	–	5%	–
